Test results as given in patent US20260028354A1, “TETRAHYDRONAPHTHALENE DERIVATIVES AS ESTROGEN RECEPTOR DEGRADERS” (REGENT OF THE UNIVERSITY OF MICHIGAN, priority 2022, published 2026).
Read-outs that look alike come from different tables or passages of the source.

Legend:
[1] = Western blot analysis for "B" compounds; assay type: cell-based; conditions: read-out: Traditional Western Degradation Potency (DC50)
In short: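 Target protein levels given as relative mean band intensity over GAPDH from scanned immunoblots. Lysates of treated cells in RIPA buffer, equalized by BCA, separated on 10% gels and transferred to PVDF.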

[2] = Cell growth assay (WST-8) for "B" compounds; assay type: cell-based; conditions: T47D cell line, read-out: Cell growth Inhibition in T47D cell line IC50
Description: Cell Growth Assay. The cells were seeded at 1500/well in 96 well plates overnight. One day after the seeding, they were treated with indicated doses of compounds respectively, 4 days after the compound treatment, 10% WST-8 reagent was added to the culture medium and incubate in a CO2 incubator at 37° C. for 2.5 hours. Before reading, the plate was mixed gently on an orbital shaker for one minute to ensure homogeneous distribution of color. The absorbance was measured of each sample using a microplate reader at a wavelength of 450 nm. The relative absorbance was calculated against the vehicle control from three individually repeats.

Row | DC50 [1] [nM] | SMILES | IC50 ([2]; T47D) [nM] | IC50 [2] [nM]
1 | < 10 | O=C1CCC(N2C(=O)c3cc4c(cc3C2=O)CN(C2CCN(CC3CCN(c5ccc([C@@H]6c7ccc(O)cc7CC[C@@H]6c6ccccc6)cc5)CC3)CC2)C4)C(=O)N1 (stereo partly drawn) [Compound B64, 2-(2,6-dioxopiperidin-3-yl)-6-(1-((1-(4-((1R,2S)-6-hydroxy-2-phenyl-1,2,3,4-tctrahydronaphthalcn-1-yl)phenyl)pipcridin-4-yl)methyl)piperidin-4-yl)-6,7-dihydropyrrolo[3,4-f]isoindole-1,3(2H,5H)-dione] | 1 to 10 | –
2 | 10 to 100 | O=C1CCC(N2C(=O)c3cc4c(cc3C2=O)CN(CC2CCN(C(=O)C3CCN(c5ccc([C@@H]6c7ccc(O)cc7CC[C@@H]6c6ccccc6)cc5)CC3)CC2)C4)C(=O)N1 (stereo partly drawn) [Compound B56, 2-(2,6-dioxopiperidin-3-yl)-6-((1-(1-(4-((1R,2S)-6-hydroxy-2-phenyl-1,2,3,4-tetrahydronaphthalen-1-yl)phenyl)piperidine-4-carbonyl)piperidin-4-yl)methyl)-6,7-dihydropyrrolo[3,4-f]isoindole-1,3(2H,5H)-dione] | 1 to 10 | –
3 | 10 to 100 | O=C1CCC(N2C(=O)c3cc4c(cc3C2=O)CN(CC(=O)N2CC3(CCN(c5ccc([C@@H]6c7ccc(O)cc7CC[C@@H]6c6ccccc6)c(F)c5)CC3)C2)C4)C(=O)N1 (mixture of isomers) [Compound B44, 2-(2,6-dioxopiperidin-3-yl)-6-(2-(7-(3-fluoro-4-((1S,2S)-6-hydroxy-2-phenyl-1,2,3,4-tetrahydronaphthalen-1-yl)phenyl)-2,7-diazaspiro[3.5]nonan-2-yl)-2-oxoethyl)-6,7-dihydropyrrolo[3,4-f]isoindole-1,3(2H,5H)-dione] | > 10 | –
4 | 10 to 100 | O=C1CCC(N2C(=O)c3cc4c(cc3C2=O)CN(CC(=O)N2CCC3(CC2)CCN(c2ccc([C@@H]5c6ccc(B(O)O)cc6CC[C@@H]5c5ccccc5)cc2)CC3)C4)C(=O)N1 (mixture of isomers) [Compound B50, ((5R,6S)-5-(4-(9-(2-(6-(2,6-dioxopiperidin-3-yl)-5,7-dioxo-3,5,6,7-tetrahydropyrrolo[3,4-f]isoindol-2(1H)-yl)acetyl)-3,9-diazaspiro[5.5]undecan-3-yl)phenyl)-6-phenyl-5,6,7,8-tetrahydronaphthalen-2-yl)boronic acid] | > 10 | –
5 | 10 to 100 | O=C1CCC(N2C(=O)c3cc4c(cc3C2=O)CN(CC(=O)N2CCC3(CC2)CCN(c2ccc([C@@H]5c6ccc(O)cc6CC[C@@H]5C5CCC(F)(F)CC5)cc2)CC3)C4)C(=O)N1 (mixture of isomers) [Compound B48, 6-(2-(9-(4-((1R,2R)-2-(4,4-difluorocyclohexyl)-6-hydroxy-1,2,3,4-tetrahydronaphthalen-1-yl)phenyl)-3,9-diazaspiro[5.5]undecan-3-yl)-2-oxoethyl)-2-(2,6-dioxopiperidin-3-yl)-6,7-dihydropyrrolo[3,4-f]isoindole-1,3(2H,5H)-dione] | 1 to 10 | –
6 | < 10 | O=C1CCC(N2C(=O)c3cc4c(cc3C2=O)CN(CC(=O)N2CC3(CCN(c5ccc([C@@H]6c7ccc(O)cc7CC[C@@H]6c6ccccc6)cc5)CC3)C2)C4)C(=O)N1 (mixture of isomers) [Compound B5, 2-(2,6-dioxopiperidin-3-yl)-6-(2-(7-(4-((1R,2S)-6-hydroxy-2-phenyl-1,2,3,4-tetrahydronaphthalen-1-yl)phenyl)-2,7-diazaspiro[3.5]nonan-2-yl)-2-oxoethyl)-6,7-dihydropyrrolo[3,4-f]isoindole-1,3(2H,5H)-dione] | – | > 10
7 | > 100 | C[C@H]1CC2(CCN(c3ccc([C@@H]4c5ccc(O)cc5CC[C@@H]4c4ccccc4)cc3)CC2)CN1CC(=O)N1Cc2cc3c(cc2C1)C(=O)N(C1CCC(=O)NC1=O)C3=O (mixture of isomers) [Compound B30, 2-(2,6-dioxopiperidin-3-yl)-6-(2-((S)-8-(4-((1R,2S)-6-hydroxy-2-phenyl-1,2,3,4-tetrahydronaphthalen-1-yl)phenyl)-3-methyl-2,8-diazaspiro[4.5]decan-2-yl)acetyl)-6,7-dihydropyrrolo[3,4-f]isoindole-1,3(2H,5H)-dione] | > 10 | –
8 | > 100 | O=C1CCC(N2C(=O)c3cc4c(cc3C2=O)CCN(CC(=O)N2CCC3(CC2)CCN(c2ccc([C@@H]5c6ccc(O)cc6CC[C@@H]5c5ccc(F)cc5)cc2)CC3)CC4)C(=O)N1 (stereo partly drawn) [Compound B52, 2-(2,6-dioxopiperidin-3-yl)-7-(2-(9-(4-((1R,2S)-2-(4-fluorophenyl)-6-hydroxy-1,2,3,4-tetrahydronaphthalen-1-yl)phenyl)-3,9-diazaspiro[5.5]undecan-3-yl)-2-oxoethyl)-6,7,8,9-tetrahydroazepino[4,5-f]isoindole-1,3(2H,5H)-dione] | 1 to 10 | –
9 | 10 to 100 | O=C1CCC(N2Cc3cc4c(cc3C2=O)OC[C@@H]2CN(CC3CCN(c5ccc([C@@H]6c7ccc(O)cc7CC[C@@H]6c6ccccc6)cc5)CC3)CCN42)C(=O)N1 (stereo partly drawn) [Compound B135, 3-((S)-3-((1-(4-((1R,2S)-6-hydroxy-2-phenyl-1,2,3,4-tetrahydronaphthalen-1-yl)phenyl)piperidin-4-yl)methyl)-8-oxo-1,2,3,4,4a,5,8,10-octahydro-9H-pyrazino[1′,2′:4,5][1,4]oxazino[2,3-f]isoindol-9-yl)piperidine-2,6-dione] | 1 to 10 | –
10 | > 100 | O=C1CCC(N2C(=O)c3cc4c(cc3C2=O)CN(CC(=O)N2CCC3(CC2)CCN(c2c(F)cc([C@@H]5c6ccc(O)cc6CC[C@@H]5c5ccccc5)cc2F)CC3)C4)C(=O)N1 (mixture of isomers) [Compound B45, 6-(2-(9-(2,6-difluoro-4-((1R,2S)-6-hydroxy-2-phenyl-1,2,3,4-tetrahydronaphthalen-1-yl)phenyl)-3,9-diazaspiro[5.5]undecan-3-yl)-2-oxoethyl)-2-(2,6-dioxopiperidin-3-yl)-6,7-dihydropyrrolo[3,4-f]isoindole-1,3(2H,5H)-dione] | > 10 | –
11 | > 100 | O=C1CCC(N2C(=O)c3cc4c(cc3C2=O)CN(CC(=O)N2CCC3(CC2)CCN(c2ccc([C@H]5c6ccc7[nH]ncc7c6CC[C@H]5c5ccccc5)cc2)CC3)C4)C(=O)N1 (stereo partly drawn) [Compound B138, 2-(2,6-dioxopiperidin-3-yl)-6-(2-oxo-2-(9-(4-((6S,7R)-7-phenyl-6,7,8,9-tetrahydro-3H-benzo[e]indazol-6-yl)phenyl)-3,9-diazaspiro[5.5]undecan-3-yl)ethyl)-6,7-dihydropyrrolo[3,4-f]isoindole-1,3(2H,5H)-dione] | 1 to 10 | –
12 | > 100 | O=C1CCC(N2C(=O)c3cc4c(cc3C2=O)CN(CC(=O)N2CCC3(CC2)CCN(c2cc(F)c([C@@H]5c6ccc(O)cc6CC[C@@H]5c5ccccc5)c(F)c2)CC3)C4)C(=O)N1 (mixture of isomers) [Compound B46, 6-(2-(9-(3,5-difluoro-4-((1S,2S)-6-hydroxy-2-phenyl-1,2,3,4-tetrahydronaphthalen-1-yl)phenyl)-3,9-diazaspiro[5.5]undecan-3-yl)-2-oxoethyl)-2-(2,6-dioxopiperidin-3-yl)-6,7-dihydropyrrolo[3,4-f]isoindole-1,3(2H,5H)-dione] | > 10 | –
13 | > 100 | O=C1CCC(N2C(=O)c3cc4c(cc3C2=O)CN(CC(=O)N2CC3(CCN(c5ccc([C@@H]6c7ccc(O)cc7CC[C@@H]6c6ccccc6)cc5F)CC3)C2)C4)C(=O)N1 (mixture of isomers) [Compound B43, 2-(2,6-dioxopiperidin-3-yl)-6-(2-(7-(2-fluoro-4-((1R,2S)-6-hydroxy-2-phenyl-1,2,3,4-tetrahydronaphthalen-1-yl)phenyl)-2,7-diazaspiro[3.5]nonan-2-yl)-2-oxoethyl)-6,7-dihydropyrrolo[3,4-f]isoindole-1,3(2H,5H)-dione] | 1 to 10 | –
14 | > 100 | O=C1CCC(N2C(=O)c3cc4c(cc3C2=O)CN(C(=O)C2CCN(CC3CCN(c5ccc([C@@H]6c7ccc(O)cc7CC[C@@H]6c6ccccc6)cc5)CC3)CC2)C4)C(=O)N1 (stereo partly drawn) [Compound B57, 2-(2,6-dioxopiperidin-3-yl)-6-(1-((1-(4-((1R,2S)-6-hydroxy-2-phenyl-1,2,3,4-tetrahydronaphthalen-1-yl)phenyl)piperidin-4-yl)methyl)piperidine-4-carbonyl)-6,7-dihydropyrrolo[3,4-f]isoindole-1,3(2H,5H)-dione] | 1 to 10 | –
15 | < 10 | O=C1CCC(N2C(=O)c3cc4c(cc3C2=O)CN(CC(=O)N2CC3(CCN(c5ccc([C@@H]6c7ccc(O)cc7CC[C@@H]6c6ccccc6)cc5)CC3)C2)C4)C(=O)N1 (stereo partly drawn) [Compound B28, 2-(2,6-dioxopiperidin-3-yl)-6-(2-(7-(4-((1R,2S)-6-hydroxy-2-phenyl-1,2,3,4-tetrahydronaphthalen-1-yl)phenyl)-2,7-diazaspiro[3.5]nonan-2-yl)-2-oxoethyl)-6,7-dihydropyrrolo[3,4-f]isoindole-1,3(2H,5H)-dione] | – | 1 to 10
16 | 10 to 100 | C[C@H]1CC2(CCN(C(=O)CN3Cc4cc5c(cc4C3)C(=O)N(C3CCC(=O)NC3=O)C5=O)CC2)CN1c1ccc([C@@H]2c3ccc(O)cc3CC[C@@H]2c2ccccc2)cc1 (mixture of isomers) [Compound B24, 2-(2,6-dioxopiperidin-3-yl)-6-(2-((S)-2-(4-((1R,2S)-6-hydroxy-2-phenyl-1,2,3,4-tetrahydronaphthalen-1-yl)phenyl)-3-methyl-2,8-diazaspiro[4.5]decan-8-yl)-2-oxoethyl)-6,7-dihydropyrrolo[3,4-f]isoindole-1,3(2H,5H)-dione] | > 10 | –
